Measured values published in the supplement of paper PMC10307832.

Legend:
Assay in all cases: relative viability (nuclei count vs DMSO), 5 days (fraction); higher = more cells survive
GW-2580 + Foretinib = compound: COC1=CC=C(C=C1)COC2=C(C=C(C=C2)CC3=CN=C(N=C3N)N)OC [GW-2580] + COc1cc2c(Oc3ccc(NC(=O)C4(C(=O)Nc5ccc(F)cc5)CC4)cc3F)ccnc2cc1OCCCN1CCOCC1 [Foretinib] (partner 0.25 µM)
In short: (§1)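 Dosing by pin tool came one day after lung cancer cell lines were seeded in 1536-well plates, using either one drug or a fixed anchor-drug dose plus five library-drug doses (not always all listed) in √10 steps. After 5 days, nuclei were counted on 4× images. Relative viability is treated-well nuclei count divided by vehicle-well nuclei count, and values are medians of duplicate plates.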

GW-2580 + AZD7762 = compound: COC1=CC=C(C=C1)COC2=C(C=C(C=C2)CC3=CN=C(N=C3N)N)OC [GW-2580] + NC(=O)Nc1cc(-c2cccc(F)c2)sc1C(=O)N[C@H]1CCCNC1 [AZD7762] (partner 0.2 µM)
In short: as §1

GW-2580 + Decitabine = compound: COC1=CC=C(C=C1)COC2=C(C=C(C=C2)CC3=CN=C(N=C3N)N)OC [GW-2580] + Nc1ncn([C@H]2C[C@H](O)[C@@H](CO)O2)c(=O)n1 [Decitabine] (partner 2 µM)
In short: as §1

GW-2580 + Vorinostat = compound: COC1=CC=C(C=C1)COC2=C(C=C(C=C2)CC3=CN=C(N=C3N)N)OC [GW-2580] + O=C(CCCCCCC(=O)Nc1ccccc1)NO [Vorinostat] (partner 1 µM)
In short: as §1

Cell Line	relative viability (GW-2580 + Foretinib; first compound 0.08 µM)	relative viability (GW-2580 + Foretinib; first compound 0.8 µM)	relative viability (GW-2580 + Foretinib; first compound 2.53 µM)	relative viability (GW-2580 + Foretinib; first compound 8 µM)	relative viability (GW-2580 + AZD7762; first compound 0.08 µM)	relative viability (GW-2580 + AZD7762; first compound 0.8 µM)	relative viability (GW-2580 + AZD7762; first compound 2.53 µM)	relative viability (GW-2580 + AZD7762; first compound 8 µM)	relative viability (GW-2580 + Decitabine; first compound 0.08 µM)	relative viability (GW-2580 + Decitabine; first compound 0.8 µM)	relative viability (GW-2580 + Decitabine; first compound 2.53 µM)	relative viability (GW-2580 + Decitabine; first compound 8 µM)	relative viability (GW-2580 + Vorinostat; first compound 0.08 µM)	relative viability (GW-2580 + Vorinostat; first compound 0.8 µM)	relative viability (GW-2580 + Vorinostat; first compound 2.53 µM)	relative viability (GW-2580 + Vorinostat; first compound 8 µM)
NCI-H460	1.02	1.09	0.987	0.924	0.595	0.714	0.383	0.492	0.577	0.574	0.461	0.461	0.85	1.11	0.721	0.631
NCI-H596	0.795	0.88	0.957	0.823	1.1	1.18	1.19	1.14	1.12	0.883	1.89	0.937	0.591	0.595	0.495	0.564
NCI-H647	1.25	1.16	1.13	1.37	0.567	0.621	0.326	0.405	0.402	0.272	0.361	0.383	0.726	0.511	0.59	0.447
NCI-H650	1.06	1.05	0.932	0.94	0.884	1.28	0.869	0.982	0.337	0.315	0.292	0.328	0.512	0.502	0.349	0.416
NCI-H727	0.694	1.05	0.834	0.777	0.461	0.732	0.576	0.432	0.784	1.12	0.808	0.768	1.09	1.26	1.25	1.26
NCI-H838	1.15	1.14	0.997	1.03	0.976	0.998	0.92	0.986	0.438	0.466	0.435	0.426	0.789	0.782	0.691	0.771
NCI-H1355	1.04	1.06	0.841	0.923	0.807	0.767	0.566	0.676	0.314	0.339	0.322	0.353	0.701	0.656	0.529	0.697
NCI-H1395	1.08	0.934	1	0.923	0.421	0.377	0.422	0.416	0.793	0.689	0.753	0.776	0.669	0.662	0.623	0.742
NCI-H1437	1.38	1.28	1.14	0.91	1.11	1.09	1.04	0.995	0.564	0.574	0.617	0.535	0.923	0.918	0.674	0.534
NCI-H1651	0.958	0.804	0.754	0.745	0.452	0.53	0.535	0.455	0.565	0.666	0.551	0.548	0.516	0.636	0.534	0.555
NCI-H1666	0.928	0.936	0.948	0.991	0.824	1.1	0.852	0.826	0.604	0.888	0.738	0.698	1.08	1.16	0.94	0.967
NCI-H1734	0.894	0.855	0.783	0.717	0.543	0.558	0.481	0.568	0.522	0.457	0.539	0.55	0.871	0.802	0.725	0.775
NCI-H1755	1.02	0.967	0.907	0.679	0.483	0.486	0.448	0.405	0.695	0.714	0.757	0.654	1.03	0.77	0.7	0.748
NCI-H1793	0.694	0.758	0.584	0.58	0.587	0.382	0.266	0.323	0.493	0.614	0.473	0.503	0.755	0.88	0.566	0.718
NCI-H1915	1.26	0.768	1.12	1.06	0.772	0.708	0.692	0.743	0.248	0.272	0.575	0.251	0.559	0.583	0.442	0.508
NCI-H1944	0.945	0.886	0.966	0.631	0.572	0.498	0.485	0.452	0.414	0.421	0.45	0.395	0.551	0.53	0.513	0.52
NCI-H1975	0.965	1.03	0.939	0.803	0.829	0.805	0.598	0.815	0.417	0.455	0.376	0.4	0.755	0.75	0.654	0.647
NCI-H1993	0.921	0.765	0.686	0.746	0.851	0.772	0.687	0.868	0.652	0.665	0.514	0.63	0.993	0.887	0.661	0.868
NCI-H2085	1	0.895	1.08	0.758	1.14	1.14	0.989	0.919	0.577	0.542	0.541	0.589	0.786	0.856	0.735	0.821
NCI-H2087	1.21	1.25	1.2	0.937	1.33	1.4	1.12	0.937	0.276	0.267	0.237	0.276	0.802	0.807	0.696	0.715
NCI-H2126	1.32	1.13	0.925	1.28	1.06	1.02	0.942	1.03	0.582	0.614	0.574	0.569	0.817	0.794	0.749	0.814
NCI-H2170	1.05	0.957	0.958	1.04	0.982	0.864	0.723	0.837	0.521	0.464	0.47	0.467	0.932	0.903	0.64	0.775
NCI-H2342	1.02	1.05	0.942	1.07	0.585	0.481	0.497	0.444	0.673	0.654	0.692	0.735	0.711	0.75	0.625	0.751
NCI-H2347	0.739	0.885	0.586	1.17	0.852	0.855	0.636	0.776	0.676	0.662	0.582	0.587	0.619	0.621	0.549	0.575
NCI-H2405	1.04	1.08	0.963	0.958	0.793	0.712	0.703	0.581	0.739	0.766	0.746	0.729	1.05	1.19	0.9	0.785
NCI-H3122	1.07	0.991	0.982	0.961	1.01	1.02	1.06	1	0.377	0.411	0.437	0.54	1.08	1.06	1.06	1.13
PC-3 [JPC-3]	1.06	1.06	0.948	0.865	0.732	1.09	0.897	0.781	0.8	0.855	0.829	0.783	0.917	1.26	0.572	0.639
PC-14	1.08	1.07	0.924	0.936	0.47	0.484	0.271	0.396	0.191	0.198	0.236	0.221	0.919	0.977	0.724	0.607
RERF-LC-KJ	0.896	0.911	0.842	0.765	1.11	1.25	0.825	0.913	0.687	0.799	0.673	0.658	0.663	0.792	0.629	0.684
SW 900	0.831	0.905	1.37	0.878	0.68	0.616	0.574	0.557	0.467	0.45	0.422	0.472	0.53	0.517	0.419	0.528
